≈ marks a conversion by molar mass, not a printed value. Peptide text beside a SMILES is read from it.
What was measured:
P. aeruginosa PAO1 = format: cell-based, Pseudomonas aeruginosa
Method: (§1) Bicyclic and linear peptides cytotoxicity was assayed against P. aeruginosa PAO1, P. aeruginosa ZEM-1A, P. aeruginosa ZEM9A, K. pneumoniae Oxa-48, E. coli W3110, A. baumannii BAL225, S. aureus Newman, S. aureus COL (clinical isolate of MRSA) , B. Subtilis BR151.
(§2) To determine the Minimal Inhibitory Concentration (MIC), Broth Microdilution method was used . 2 A colony of bacteria from glycerol stock was grown in LB medium overnight at 37 °C and 180 rpm shaking. The compounds were prepared as stock solutions of 8 mg/mL in sterilized milliQ deionized water, added to the first well of 96 -well sterile, polypropylene round bottom microtiter plates (TPP, untreated) and diluted serially by ½. The concentration of the bacteria was quantified by measuring absorbance at 600 nm and diluted to an OD 600 of 0.022 in MH medium. The sample solutions (150 µL) were mixed with 4 µL diluted bacterial suspension with a final inoculation of about 5×10^5 CFU.
For each test, two columns of the plate were kept for sterility control (MH medium only), growth control (MH medium with bacterial inoculum, no compound). The positive control, Polymyxin B (starting with a concentration of 64 µg/mL) in MH medium with bacterial inoculums, was introduced in the two first lines of the plate. The plates were incubated at 37 °C for ~18 hours under static conditions. 15 μL of 3-(4,5-dimethylthiazol-2-yl)-2,5-diphenyltetrazolium bromide (MTT)3 (1 mg/mL in sterilized milliQ deionized water) were added to each well and the plates were incubated for 20-30 minutes at room temperature. The minimal inhibitory concentration (MIC) was defined as the lowest concentration of the dendrimer that inhibits the visible growth of the tested bacteria (yellow) with the unaided eye.

B. subtilis BR151 = format: cell-based, Bacillus subtilis; conditions: BR151, 20 h
Method: as §1, §2
For each test, two columns of the plate were kept for sterility control (MH medium only), growth control (MH medium with bacterial inoculum, no compound). The positive control, Polymyxin B (starting with a concentration of 64 µg/mL) in MH medium with bacterial inoculums, was introduced in the two first lines of the plate. […]
conditions. 15 μL of 3-(4,5-dimethylthiazol-2-yl)-2,5-diphenyltetrazolium bromide (MTT)3 (1 mg/mL in sterilized milliQ deionized water) were added to each well and the plates were incubated for 20-30 minutes at room temperature. The minimal inhibitory concentration (MIC) was defined as the lowest concentration of the dendrimer that inhibits the visible growth of the tested bacteria (yellow) with the unaided eye.

[1] = Lipid vesicle leakage assay, 5(6)-carboxyfluorescein release; conditions: for EYPC vesicle leakage / EYPG vesicle leakage: 10 μg mL^−1 compound, leakage at 250 s, 10 mM TRIS, 107 mM NaCl, pH 7.4, 25 °C, carboxyfluorescein fluorescence, Triton X-100 = full release
Method: 4 Lipid Vesicle Leakage assays
5(6)-carboxyfluorescein (CF) was purchased from Sigma. Egg Yolk Phosphatidylcholine (EYPC),
Egg Yolk Phosphatidylglycerol (EYPG) and a Mini-Extruder were purchased from Avanti Polar
Lipids. Egg PC or Egg PG thin lipid layers were prepared by evaporating a solution of 100 mg EYPC
or EYPG in 4 mL MeOH/CHCl3 (1:1) on a rotary evaporator at room temperature and then dried in
vacuo overnight. The resulting film was then hydrated with 4 mL CF buffer (50 mM CF, 10 mM
TRIS, 107 mM NaCl, pH 7.4) for 30 min, subjected to freeze-thaw cycles (7×) and extrusion (15×)
through a polycarbonate membrane (pore size 100 nm). Extra vesicular components were removed
by gel filtration (Sephadex G-50) with 10 mM TRIS, 107 mM NaCl, pH 7.4 buffer. Final conditions:
~ 2.5 mM PC or PG; inside: 50 mM CF, 10 mM TRIS, 10 mM NaCl, pH 7.4 buffer; outside: 10 mM
TRIS, 107 mM NaCl, pH 7.4. PC or PG stock solutions (37.5 µL) were diluted to 3000 µL with a
buffer (10 mM TRIS, 107 mM NaCl, pH 7.4) in a thermostated fluorescence cuvette (25 °C) and
gently stirred (final lipid concentration ~31 µM). CF efflux was monitored at λem 517 nm (λex 492
nm) as a function of time after addition of the desired volume of peptide (1 or 20 mg/mL stock in mQ
water) at t = 45 s. The following final concentrations of peptide were monitored: 5, 10, 15, 20, 25 and
200 µg/mL. Finally, 30 µL of 1.2% Triton X -100 was added to the cuvette (0.012% final
concentration) at t = 285 s to reach the maximum intensity. Fluorescence intensities were then
Figure S1: Vesicle leakage experiments using 5(6)-carboxyfluorescein induced by peptides. EYPG and EYPC vesicles
were suspended in buffer (10 mM TRIS, 107 mM NaCl, pH 7.4) and the indicated concentration of the compound was
added after 45 sec. After 285 seconds 30 μL Triton X-100 1.2% was added for full release of fluorescein. […]

SMILES	MIC PAO1 (P. aeruginosa PAO1)	MIC BR 151 (B. subtilis BR151)	further results
Cc1c2cc3cc1CSC[C@H](NC(=O)[C@H](CCCCN)NC(=O)[C@H](CC(C)C)NC(=O)[C@H](CC(C)C)NC(=O)[C@H](CCCCN)NC(=O)[C@H](CCCCN)NC3=O)C(=O)N[C@@H](CC(C)C)C(=O)N[C@@H](CCCCN)C(=O)N[C@H](C(=O)N[C@@H](CC(C)C)C(N)=O)CSC2 [bp3] (HELM PEPTIDE1{K.K.L.L.K.C.L.K.C.L.[am]}|CHEM1{[Cc1c(C[*:2])cc(C(=O)[*:1])cc1C[*:3]]}$PEPTIDE1,CHEM1,1:R1-1:R1|PEPTIDE1,CHEM1,6:R3-1:R2|PEPTIDE1,CHEM1,9:R3-1:R3$$$V2.0)	>64 µg/mL	4 µg/mL (≈ 3.01 µM)	
Cc1c2cc3cc1CSC[C@H](NC(=O)[C@H](CCCCN)NC(=O)[C@H](CCCCN)NC(=O)[C@H](CC(C)C)NC(=O)[C@H](CC(C)C)NC(=O)[C@H](CCCCN)NC3=O)C(=O)N[C@@H](CC(C)C)C(=O)N[C@@H](CCCCN)C(=O)N[C@H](C(=O)N[C@@H](CC(C)C)C(N)=O)CSC2 [bp59] (HELM PEPTIDE1{K.L.L.K.K.C.L.K.C.L.[am]}|CHEM1{[Cc1c(C[*:2])cc(C(=O)[*:1])cc1C[*:3]]}$PEPTIDE1,CHEM1,1:R1-1:R1|PEPTIDE1,CHEM1,6:R3-1:R2|PEPTIDE1,CHEM1,9:R3-1:R3$$$V2.0)		4 µg/mL (≈ 3.01 µM)	
Cc1c2cc3cc1CSC[C@H](NC(=O)[C@H](CC(C)C)NC(=O)[C@H](CCCCN)NC(=O)[C@H](CC(C)C)NC(=O)[C@H](CC(C)C)NC(=O)[C@H](CCCCN)NC3=O)C(=O)N[C@@H](CCCCN)C(=O)N[C@@H](CCCCN)C(=O)N[C@H](C(=O)N[C@@H](CC(C)C)C(N)=O)CSC2 [bp60] (HELM PEPTIDE1{K.L.L.K.L.C.K.K.C.L.[am]}|CHEM1{[Cc1c(C[*:2])cc(C(=O)[*:1])cc1C[*:3]]}$PEPTIDE1,CHEM1,1:R1-1:R1|PEPTIDE1,CHEM1,6:R3-1:R2|PEPTIDE1,CHEM1,9:R3-1:R3$$$V2.0)		> 64 µg/mL	
Cc1c2cc3cc1CSC[C@H](NC(=O)[C@H](CC(C)C)NC(=O)[C@H](CCCCN)NC(=O)[C@H](CCCCN)NC3=O)C(=O)N[C@@H](CCCCN)C(=O)N[C@@H](CC(C)C)C(=O)N[C@H](C(=O)N[C@@H](CCCCN)C(=O)N[C@@H](CC(C)C)C(N)=O)CSC2 [bp61] (HELM PEPTIDE1{K.K.L.C.K.L.C.K.L.[am]}|CHEM1{[Cc1c(C[*:2])cc(C(=O)[*:1])cc1C[*:3]]}$PEPTIDE1,CHEM1,1:R1-1:R1|PEPTIDE1,CHEM1,4:R3-1:R2|PEPTIDE1,CHEM1,7:R3-1:R3$$$V2.0)		> 64 µg/mL	
Cc1c2cc3cc1CSC[C@H](NC(=O)[C@H](CC(C)C)NC(=O)[C@H](CC(C)C)NC(=O)[C@H](CC(C)C)NC(=O)[C@H](CCCCN)NC(=O)[C@H](CCCCN)NC3=O)C(=O)N[C@@H](CCCCN)C(=O)N[C@@H](CC(C)C)C(=O)N[C@H](C(=O)N[C@@H](CCCCN)C(N)=O)CSC2 [bp62] (HELM PEPTIDE1{K.K.L.L.L.C.K.L.C.K.[am]}|CHEM1{[Cc1c(C[*:2])cc(C(=O)[*:1])cc1C[*:3]]}$PEPTIDE1,CHEM1,1:R1-1:R1|PEPTIDE1,CHEM1,6:R3-1:R2|PEPTIDE1,CHEM1,9:R3-1:R3$$$V2.0)		32 µg/mL (≈ 24 µM)	
Cc1c2cc3cc1CSC[C@H](NC(=O)[C@H](CC(C)C)NC(=O)[C@H](CCCCN)NC(=O)[C@H](CCCCN)NC3=O)C(=O)N[C@@H](CCCCN)C(=O)N[C@@H](CC(C)C)C(=O)N[C@@H](CC(C)C)C(=O)N[C@@H](CCCCN)C(=O)N[C@H](C(=O)N[C@@H](CC(C)C)C(N)=O)CSC2 [bp63] (HELM PEPTIDE1{K.K.L.C.K.L.L.K.C.L.[am]}|CHEM1{[Cc1c(C[*:2])cc(C(=O)[*:1])cc1C[*:3]]}$PEPTIDE1,CHEM1,1:R1-1:R1|PEPTIDE1,CHEM1,4:R3-1:R2|PEPTIDE1,CHEM1,9:R3-1:R3$$$V2.0)		4 µg/mL (≈ 3.01 µM)	
Cc1c2cc3cc1CSC[C@H](NC(=O)[C@H](CCCCN)NC(=O)[C@H](CC(C)C)NC(=O)[C@H](CC(C)C)NC(=O)[C@H](CCCCN)NC(=O)[C@H](CCCCN)NC3=O)C(=O)N[C@@H](CCCCN)C(=O)N[C@@H](CC(C)C)C(=O)N[C@H](C(=O)N[C@@H](CC(C)C)C(N)=O)CSC2 [bp64] (HELM PEPTIDE1{K.K.L.L.K.C.K.L.C.L.[am]}|CHEM1{[Cc1c(C[*:2])cc(C(=O)[*:1])cc1C[*:3]]}$PEPTIDE1,CHEM1,1:R1-1:R1|PEPTIDE1,CHEM1,6:R3-1:R2|PEPTIDE1,CHEM1,9:R3-1:R3$$$V2.0)		16 µg/mL (≈ 12 µM)	
Cc1c2cc3cc1CSC[C@H](NC(=O)[C@H](CC(C)C)NC(=O)[C@H](CCCCN)NC(=O)[C@H](CCCCN)NC3=O)C(=O)N[C@@H](CCCCN)C(=O)N[C@@H](CC(C)C)C(=O)N[C@@H](CC(C)C)C(=O)N[C@@H](CCCCN)C(=O)N[C@H](C(N)=O)CSC2 [bp66] (HELM PEPTIDE1{K.K.L.C.K.L.L.K.C.[am]}|CHEM1{[Cc1c(C[*:2])cc(C(=O)[*:1])cc1C[*:3]]}$PEPTIDE1,CHEM1,1:R1-1:R1|PEPTIDE1,CHEM1,4:R3-1:R2|PEPTIDE1,CHEM1,9:R3-1:R3$$$V2.0)		> 64 µg/mL	
Cc1c2cc3cc1CSC[C@H](C(=O)N[C@@H](CC(C)C)C(=O)N[C@H](CC(C)C)C(N)=O)NC(=O)[C@H](CCCCN)NC(=O)[C@@H](CC(C)C)NC(=O)[C@H](CSC2)NC(=O)[C@@H](CCCCN)NC(=O)[C@H](CC(C)C)NC(=O)[C@@H](CC(C)C)NC(=O)[C@H](CCCCN)NC(=O)[C@@H](CCCCN)NC3=O [bp67] (HELM PEPTIDE1{[dK].K.[dL].L.[dK].C.[dL].K.[dC].L.[dL].[am]}|CHEM1{[Cc1c(C[*:2])cc(C(=O)[*:1])cc1C[*:3]]}$PEPTIDE1,CHEM1,1:R1-1:R1|PEPTIDE1,CHEM1,6:R3-1:R2|PEPTIDE1,CHEM1,9:R3-1:R3$$$V2.0)	32 µg/mL (≈ 22.2 µM)		EYPC vesicle leakage [1]: 6%; EYPG vesicle leakage [1]: 48%; Leakage activity on EYPC vesicles, in words ([1]; zwitterionic EYPC vesicles mimicking eukaryotic membranes): very low leakage activity
Cc1c2cc3cc1CSC[C@@H](NC(=O)[C@H](CCCCN)NC(=O)[C@H](CC(C)C)NC(=O)[C@H](CC(C)C)NC(=O)[C@H](CCCCN)NC(=O)[C@H](CCCCN)NC3=O)C(=O)N[C@@H](CC(C)C)C(=O)N[C@@H](CCCCN)C(=O)N[C@@H](C(=O)N[C@@H](CC(C)C)C(=O)N[C@@H](CC(C)C)C(N)=O)CSC2 [bp68] (HELM PEPTIDE1{K.K.L.L.K.[dC].L.K.[dC].L.L.[am]}|CHEM1{[Cc1c(C[*:2])cc(C(=O)[*:1])cc1C[*:3]]}$PEPTIDE1,CHEM1,1:R1-1:R1|PEPTIDE1,CHEM1,6:R3-1:R2|PEPTIDE1,CHEM1,9:R3-1:R3$$$V2.0)	16 µg/mL (≈ 11.1 µM)		EYPC vesicle leakage [1]: 18%; EYPG vesicle leakage [1]: 44%

— publication PMC8637766, “A mixed chirality α-helix in a stapled bicyclic and a linear antimicrobial peptide revealed by X-ray crystallography” (RSC Chemical Biology, 2021)
